The text below walks through data of patent US20250345284A1, “LIPID NANOPARTICLE (LNP) COMPOSITIONS AND METHODS OF USE THEREOF” (The Trustees Of The University of Pennsylvania, priority 2021, published 2025).

A short description of data set [1]: Z-average diameter and polydispersity index by dynamic light scattering (Zetasizer Nano). The format is physicochemical. The following applies: LNPs with 12.5%, 25% and 50% substitution of the named hydroxycholesterol.
A short description of data set [2]: Stability of 100% hydroxycholesterol substitution LNPs over 28 days. The following applies: 100% substitution of hydroxycholesterol for cholesterol, vs S2.
Excerpt: FIG. 8B depicts measurements of z-average diameter, PDI, mRNA concentration, and encapsulation efficiency for S2 LNPs and LNP formulations with 100% cholesterol substitution taken over 28 days to assess LNP stability. […] Error bars denote standard deviation. FIG. 8C depicts the pKa, zeta potential, z-average diameter, and PDI measurements for the exemplary LNPs of the present disclosure. n=3. Error bars denote standard deviation.
Characterization parameters assessed over the 28-day period include z-average diameter, PDI, mRNA concentration, and encapsulation efficiency (Table 3).

Molecules are shown by their SMILES.

For `CC(C)[C@@H](O)CC[C@@H](C)[C@H]1CC[C@H]2[C@@H]3CC=C4C[C@@H](O)CC[C@]4(C)[C@H]3CC[C@]12C` [B2, 24 (S)-hydroxycholesterol], in data set [1], the “PDI (in words)” value is listed as “more polydisperse” and the “z-average diameter (in words)” value is “increased particle diameters”.

With `CC(C)CCC[C@@H](C)[C@H]1CC[C@H]2[C@@H]3CC=C4C[C@@H](O)CC[C@]4(CO)[C@H]3CC[C@]12C` [A3, 19-hydroxycholesterol], in data set [1], the “PDI (in words)” value is “remained within expected ranges” and the “z-average diameter (in words)” value is recorded as “remained within expected ranges”.

On to `C[C@H](CCCC(C)(C)O)[C@H]1CC[C@H]2[C@@H]3CC=C4C[C@@H](O)CC[C@]4(C)[C@H]3CC[C@]12C` [B3, 25-hydroxycholesterol], for which, in data set [1], the “PDI (in words)” value was “more polydisperse” and the “z-average diameter (in words)” value is recorded as “increased particle diameters”.

Turning to `CC(C)CCC[C@@H](C)[C@H]1CC[C@H]2[C@@H]3[C@H](O)C=C4C[C@@H](O)CC[C@]4(C)[C@H]3CC[C@]12C` [A1, 7α-hydroxycholesterol], in data set [1], the “PDI (in words)” value was “remained within expected ranges” and the “z-average diameter (in words)” value was “remained within expected ranges”. Further, the “stability (all characterization parameters)” value (from here on “stability”) in data set [2] is “comparable on all parameters on all days to S2”.

Regarding `CC(C)CCC[C@](C)(O)[C@H]1CC[C@H]2[C@@H]3CC=C4C[C@@H](O)CC[C@]4(C)[C@H]3CC[C@@]21C` [B1, 20 (S)-hydroxycholesterol], in data set [1], the “PDI (in words)” value is “remained within expected ranges” and the “z-average diameter (in words)” value is on record as “remained within expected ranges”. In addition, the “stability” value in data set [2] is given as “comparable on all parameters on all days to S2”.

With `CC(C)CCC[C@@H](C)[C@H]1CC[C@H]2[C@@H]3[C@@H](O)C=C4C[C@@H](O)CC[C@]4(C)[C@H]3CC[C@]12C` [A2, 7β-hydroxycholesterol], in data set [1], the “PDI (in words)” value is recorded as “remained within expected ranges” and the “z-average diameter (in words)” value was “remained within expected ranges”. In addition, the “stability” value in data set [2] is “comparable on all parameters on all days to S2”.
